# System: HBV
# Test: HBV replication in HBV-infected fresh primary human hepatocytes (PHH): secreted HBsAg, HBeAg, HBV DNA
# Assay type: cell-based, HBV (genotype D)
# Details: FXR agonist 1 μM combined with Riboxxol 5 μg/mL, FIG. 5
# Procedure: Primary human hepatocytes (PHH) were freshly prepared from human liver resection obtained from the Centre Léon Bérard (Lyon) with French ministerial authorizations (AC 2013-1871, DC 2013-1870, AFNOR NF 96 900 sept 2011) as previously described (Lecluyse, E. L. & Alexandre, E. Methods Mol. Biol. Clifton NJ 640, 57-82 (2010)).
# HBV stocks (genotype D, Genbank ID U95551) were prepared using the HepAD38 cell line according to previously described protocols (Ladner, S. K. et al. Antimicrob. Agents Chemother. 41, 1715-1720 (1997)). Supernatants containing HBV particles were clarified (0.45 μm filter) and concentrated with 8% PEG 8000 (Sigma-Aldrich). HBV DNA was quantified using the AmpliPrep/COBAS® TaqMan® HBV Test (Roche).
# EYP-001 was provided by Enyo Pharma. A stock at 30 mM was constituted in DMSO, and working concentrations were obtained by dilution into the culture medium extemporaneously. Riboxxol was purchased from Riboxx (Germany). It is a synthetic double-stranded RNA (dsRNA), has a length of 50 bp, and is composed of cytosines, inosines and guanosines. It is a pure agonist of TLR3, with no leakiness toward RIG-1 or MDA5 (Lucifora J et al. Sci Rep. 2018 Mar. 29; 8(1):5390). A stock solution was constituted at 1 mg/mL in RNAse-free water. Poly(I:C) High and Low molecular weight were purchased from InvivoGen (USA). They are both double stranded RNA composed of inosine and cytosine (Low: 0.2 to 1 kb, High: 1.5 to 8 kb) and are TLR3 agonists. A stock solution at 1 mg/mL was constituted in RNAse-free water. Tropifexor, Cilofexor and Nidufexor were purchased from TargetMol (USA), GW4064 from Selleckchem (USA), Fexaramine and OCA from Euromedex (France). Those 6 FXR agonists were used as described below. All the stock solutions were at 10 mM (Cilofexor, Tropifexor, Nidufexor, GW4064) or 50 mM (Fexaramine, OCA) in DMSO.
# HBs and HBe antigens secreted in cells supernatant were quantified, after required dilutions, with Autobio kits (AutoBio, China) according to manufacturer's protocol.
# To determine the combined impact of FXR agonists and TLR3 agonists on HBV infection, in vitro infections were performed in primary human hepatocytes (PHH). PHH are naturally susceptible to infection with HBV virions produced in vitro, leading to very high levels of replication of the virus. Freshly prepared and seeded PHH were infected with HBV at a multiplicity of infection of 500 vge/cell. From day 4 to 12 post-infection, cells were treated with the FXR agonist EYP001 at 30 μM, or with a TLR3 agonist (Riboxxol) at 5 μg/mL, or with the combination of the FXR agonist EYP001 at 30 μM with a TLR3 agonist (Riboxxol) at 5 μg/mL, or with the vehicle. Supernatants were harvested at day 12 for secreted HBV DNA and secreted antigens (HBsAg and HBeAg) quantification. Results are expressed as the mean+SD of two independent experiments, each performed with at least three biological replicates. […]
# A third experiment was conducted the same way, in the same model of HBV infected PHH. In this experiment, 6 different FXR agonists (Tropifexor at 1 μM, Cilofexor at 10 μM, Nidufexor at 10 μM, GW4064 at 10 μM, Fexaramine at 10 μM and OCA at 10 μM) were combined with the TLR3 agonist Riboxxol at 5 μg/mL.
SMILES,"HBeAg level, effect of the combination versus the TLR3 agonist alone","HBsAg level, effect of the combination versus the TLR3 agonist alone"
"O=C(O)c1cc(F)c2nc(N3[C@@H]4CC[C@H]3C[C@@H](OCc3c(-c5ccccc5OC(F)(F)F)noc3C3CC3)C4)sc2c1 [Tropifexor, 2-(3-((5-cyclopropyl-3-(2-(trifluoromethoxy)phenyl)isoxazol-4-yl)methoxy)-8-azabicyclo[3.2.1]octan-8-yl)-4-fluorobenzo[d]thiazole-6-carboxylic acid]",improve the antiviral effects,improve the antiviral effects

# Same assay, conditions: FXR agonist 10 μM combined with Riboxxol 5 μg/mL, FIG. 5
SMILES,"HBeAg level, effect of the combination versus the TLR3 agonist alone","HBsAg level, effect of the combination versus the TLR3 agonist alone"
"O=C(O)c1ccnc(N2CC(O)(c3ccc(OCc4c(-c5c(Cl)cccc5Cl)noc4C4CC4)cc3Cl)C2)c1 [Cilofexor, 2-[3-[2-Chloro-4-[[5-cyclopropyl-3-(2,6-dichlorophenyl)-4-isoxazolyl]methoxy]phenyl]-3-hydroxy-1-azetidinyl]-4-pyridinecarboxylic acid]",improve the antiviral effects,improve the antiviral effects
COC(=O)/C=C/c1cccc(N(Cc2ccc(-c3ccc(N(C)C)cc3)cc2)C(=O)C2CCCCC2)c1 [Fexaramine],improve the antiviral effects,improve the antiviral effects
"CC(C)c1onc(-c2c(Cl)cccc2Cl)c1COc1ccc(/C=C/c2cccc(C(=O)O)c2)c(Cl)c1 [GW4064, 3-[2-[2-Chloro-4-[[3-(2,6-dichlorophenyl)-5-(1-methylethyl)-4-isoxazolyl]methoxy]phenyl]ethenyl]benzoic acid]",improve the antiviral effects,improve the antiviral effects
"Cn1nc(C(=O)N(Cc2ccccc2)Cc2ccc(C(=O)O)cc2)c2c1-c1cc(Cl)ccc1OC2 [Nidufexor, 4-[(N-benzyl-8-chloro-1-methyl-1,4-dihydro[1]benzopyrano[4,3-c]pyrazole-3-carboxamido)methyl]benzoic acid]",improve the antiviral effects,improve the antiviral effects
"CC[C@H]1[C@@H](O)[C@@H]2[C@H](CC[C@]3(C)[C@@H]([C@H](C)CCC(=O)O)CC[C@@H]23)[C@@]2(C)CC[C@@H](O)C[C@@H]12 [OCA, Cholan-24-oic acid, 6-ethyl-3,7-dihydroxy-, (3α,5β,6α,7α)-]",improve the antiviral effects,improve the antiviral effects
